Data taken from publication PMC10573892, “β-Lactam TRPM8 Antagonists Derived from Phe-Phenylalaninol Conjugates: Structure–Activity Relationships and Antiallodynic Activity” (International Journal of Molecular Sciences, 2023).

Tests used:
hCB2 = hCB2 (Homo sapiens, UniProt P34972); experiment: Radioligand binding at cannabinoid CB2 receptor; conditions: radioligand [3H]WIN 55212-2
Description: (§1) Furthermore, the investigation extended to measuring the binding affinity of compound 34 to calcitonin gene-related peptide hCGRPR, cannabinoid hCB2 and muscarinic hM3 receptors, which are all relevant to different pain conditions.

hTRPV1 [1] = target: T1, hTRPV1 (Homo sapiens, UniProt Q8NER1); design: method as in PMID 35269831; conditions: model compound; cited from earlier work
T1 construct: Eurofins-CEREP or Eurofins-PANLABS (contract assay)
T1 sequence (Q8NER1 whole entry): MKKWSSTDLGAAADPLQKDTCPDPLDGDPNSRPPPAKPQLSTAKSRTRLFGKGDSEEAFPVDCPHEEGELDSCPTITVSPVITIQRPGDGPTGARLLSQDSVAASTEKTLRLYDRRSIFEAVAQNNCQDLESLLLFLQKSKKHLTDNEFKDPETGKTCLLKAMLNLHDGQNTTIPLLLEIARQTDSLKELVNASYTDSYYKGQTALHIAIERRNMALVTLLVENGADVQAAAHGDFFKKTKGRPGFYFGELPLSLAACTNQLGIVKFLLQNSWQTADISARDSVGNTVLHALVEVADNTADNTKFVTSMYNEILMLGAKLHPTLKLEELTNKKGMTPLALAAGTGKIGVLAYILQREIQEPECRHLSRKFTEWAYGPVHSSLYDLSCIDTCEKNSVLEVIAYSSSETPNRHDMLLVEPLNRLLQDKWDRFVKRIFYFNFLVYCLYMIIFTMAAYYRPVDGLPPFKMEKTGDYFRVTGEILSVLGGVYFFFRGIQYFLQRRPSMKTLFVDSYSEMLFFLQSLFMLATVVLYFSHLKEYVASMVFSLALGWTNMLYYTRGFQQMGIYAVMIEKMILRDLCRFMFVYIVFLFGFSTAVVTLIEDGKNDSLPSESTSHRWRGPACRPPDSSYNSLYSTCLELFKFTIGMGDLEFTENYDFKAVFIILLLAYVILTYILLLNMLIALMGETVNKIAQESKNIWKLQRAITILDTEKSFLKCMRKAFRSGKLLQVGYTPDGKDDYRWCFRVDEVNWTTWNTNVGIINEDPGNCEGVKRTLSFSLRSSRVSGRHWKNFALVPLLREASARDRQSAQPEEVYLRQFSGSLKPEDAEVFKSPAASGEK

hTRPA1 = target: T2, hTRPA1 (Homo sapiens, UniProt O75762); experiment: TRPA1 channel Ca2+ microfluorimetry (allylisothiocyanate 10 μM); assay type: cell-based; conditions: agonist allylisothiocyanate 10 μM
T2 construct: Eurofins-CEREP or Eurofins-PANLABS (contract assay)
T2 sequence (O75762 whole entry): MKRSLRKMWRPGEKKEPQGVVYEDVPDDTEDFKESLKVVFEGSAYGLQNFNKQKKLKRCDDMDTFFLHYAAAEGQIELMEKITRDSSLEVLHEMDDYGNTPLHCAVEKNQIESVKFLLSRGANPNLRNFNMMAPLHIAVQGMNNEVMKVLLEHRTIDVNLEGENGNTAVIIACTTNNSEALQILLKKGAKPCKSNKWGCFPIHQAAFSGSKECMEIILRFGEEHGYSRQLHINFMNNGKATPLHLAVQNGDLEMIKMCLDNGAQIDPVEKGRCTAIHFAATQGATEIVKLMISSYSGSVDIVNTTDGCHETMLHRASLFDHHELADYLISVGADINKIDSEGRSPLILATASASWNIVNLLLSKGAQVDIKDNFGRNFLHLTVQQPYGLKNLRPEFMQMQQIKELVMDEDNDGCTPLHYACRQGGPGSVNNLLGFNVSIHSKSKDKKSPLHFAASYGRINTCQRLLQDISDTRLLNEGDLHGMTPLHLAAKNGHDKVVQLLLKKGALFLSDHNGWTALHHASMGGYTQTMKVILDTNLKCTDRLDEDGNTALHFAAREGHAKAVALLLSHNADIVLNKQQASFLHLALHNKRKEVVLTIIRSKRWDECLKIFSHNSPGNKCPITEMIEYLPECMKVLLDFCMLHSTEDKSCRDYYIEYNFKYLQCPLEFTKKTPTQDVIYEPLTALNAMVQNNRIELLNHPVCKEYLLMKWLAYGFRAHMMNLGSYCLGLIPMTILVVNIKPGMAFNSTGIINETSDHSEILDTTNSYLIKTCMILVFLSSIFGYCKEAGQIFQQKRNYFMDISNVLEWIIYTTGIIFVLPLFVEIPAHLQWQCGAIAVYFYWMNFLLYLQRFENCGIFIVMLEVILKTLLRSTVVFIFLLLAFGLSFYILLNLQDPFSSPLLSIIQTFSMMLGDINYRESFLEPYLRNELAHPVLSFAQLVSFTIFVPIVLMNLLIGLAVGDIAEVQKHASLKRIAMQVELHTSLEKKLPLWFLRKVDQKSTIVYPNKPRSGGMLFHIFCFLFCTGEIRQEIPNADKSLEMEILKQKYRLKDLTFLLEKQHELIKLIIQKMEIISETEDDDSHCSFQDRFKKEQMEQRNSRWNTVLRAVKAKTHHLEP
Description: (§2) The effects of compound 34 have been evaluated on different ion channels and receptors implicated in pain-related processes to assess the selectivity for TRPM8 channels. First, some TRP channels that play a role in temperature integration and nociception were selected, including hTRPV1, hTRPV3, hTRPA1 and TRPM3. Additionally, the evaluation encompassed the hASIC3 channel with widespread distribution within the peripheral nervous system and contributions to the excitability of primary sensory neurons. In each instance, the compound was subjected to evaluation at a consistent concentration of 10 µM.
(§3) Calcium fluorometry, Patch-Clamp assays and in vivo experiments were performed using the methodology previously described for TRPM8 [35] or TRPM3 [61]. In the Patch -Clamp experiments, the intracellular pipette solution contained (in mM) 140 KCl, 5 EGTA, and 10 mM HEPES, adjusted to pH 7.2 with KOH, and the extracellular solution contained (in mM) 140 NaCl, 2 CaCl2, 1 MgCl2, 10 D-glucose and 10 HEPES, adjusted to pH 7.4 with NaOH. Selectivity against TRPV1, TRPV3, TRPA1 and ASIC3 was subcontracted to Eurofins-CEREP or Eurofins-PANLABS (see ref. [35] for more details).

hTRPV3 = target: T3, hTRPV3 (Homo sapiens, UniProt Q8NET8); experiment: TRPV3 channel Ca2+ microfluorimetry (2-APB 30 μM); assay type: cell-based; conditions: agonist 2-APB 30 μM
T3 construct: Eurofins-CEREP or Eurofins-PANLABS (contract assay)
T3 sequence (Q8NET8 1-790): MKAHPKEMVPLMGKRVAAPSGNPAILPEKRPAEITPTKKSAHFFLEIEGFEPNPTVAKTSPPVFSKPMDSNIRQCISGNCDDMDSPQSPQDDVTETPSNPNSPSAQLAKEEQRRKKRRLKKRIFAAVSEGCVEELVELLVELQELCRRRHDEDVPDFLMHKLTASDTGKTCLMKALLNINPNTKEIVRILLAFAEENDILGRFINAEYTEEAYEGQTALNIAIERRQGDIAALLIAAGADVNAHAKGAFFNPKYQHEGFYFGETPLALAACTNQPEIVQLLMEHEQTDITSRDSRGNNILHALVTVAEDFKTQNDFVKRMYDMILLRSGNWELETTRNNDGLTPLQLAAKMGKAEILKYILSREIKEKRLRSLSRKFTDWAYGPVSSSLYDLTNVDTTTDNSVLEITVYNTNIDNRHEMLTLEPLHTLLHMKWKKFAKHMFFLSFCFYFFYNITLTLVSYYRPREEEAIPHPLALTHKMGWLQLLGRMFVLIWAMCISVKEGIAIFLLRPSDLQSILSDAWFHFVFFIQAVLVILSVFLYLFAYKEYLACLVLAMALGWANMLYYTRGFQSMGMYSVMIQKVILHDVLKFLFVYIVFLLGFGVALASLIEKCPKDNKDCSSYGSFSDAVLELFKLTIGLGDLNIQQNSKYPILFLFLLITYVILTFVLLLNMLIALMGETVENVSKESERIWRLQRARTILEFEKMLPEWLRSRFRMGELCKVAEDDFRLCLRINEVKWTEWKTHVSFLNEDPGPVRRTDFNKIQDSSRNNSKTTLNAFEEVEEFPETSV
Description: as §2, §3

hM3 = hM3 (Homo sapiens, UniProt P20309); experiment: Radioligand binding at muscarinic M3 receptor; conditions: radioligand [3H]4-DMAP
hM3, sequence (P20309 whole entry): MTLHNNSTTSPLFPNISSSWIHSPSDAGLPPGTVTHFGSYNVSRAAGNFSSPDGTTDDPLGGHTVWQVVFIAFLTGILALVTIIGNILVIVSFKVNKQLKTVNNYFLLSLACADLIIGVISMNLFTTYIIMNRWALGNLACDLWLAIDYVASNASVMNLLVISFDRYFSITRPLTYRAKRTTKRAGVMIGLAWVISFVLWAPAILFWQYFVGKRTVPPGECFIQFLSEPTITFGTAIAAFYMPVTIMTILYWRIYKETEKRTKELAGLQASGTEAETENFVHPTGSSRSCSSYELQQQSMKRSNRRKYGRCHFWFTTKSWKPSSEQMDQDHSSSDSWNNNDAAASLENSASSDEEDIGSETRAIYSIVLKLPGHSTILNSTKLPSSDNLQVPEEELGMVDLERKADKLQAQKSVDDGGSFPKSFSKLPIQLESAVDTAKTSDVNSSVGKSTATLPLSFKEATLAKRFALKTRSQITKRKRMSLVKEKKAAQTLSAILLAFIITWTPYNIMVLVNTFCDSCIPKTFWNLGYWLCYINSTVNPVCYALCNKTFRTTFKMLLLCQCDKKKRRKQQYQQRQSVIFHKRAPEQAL
Description: as §1

hASIC3 channel = target: T4, hASIC3 channel (Homo sapiens, UniProt Q9UHC3); experiment: ASIC3 channel functional assay (buffer pH 5.5); assay type: cell-based
T4 construct: Eurofins-CEREP or Eurofins-PANLABS (contract assay)
T4 sequence (Q9UHC3 1-531): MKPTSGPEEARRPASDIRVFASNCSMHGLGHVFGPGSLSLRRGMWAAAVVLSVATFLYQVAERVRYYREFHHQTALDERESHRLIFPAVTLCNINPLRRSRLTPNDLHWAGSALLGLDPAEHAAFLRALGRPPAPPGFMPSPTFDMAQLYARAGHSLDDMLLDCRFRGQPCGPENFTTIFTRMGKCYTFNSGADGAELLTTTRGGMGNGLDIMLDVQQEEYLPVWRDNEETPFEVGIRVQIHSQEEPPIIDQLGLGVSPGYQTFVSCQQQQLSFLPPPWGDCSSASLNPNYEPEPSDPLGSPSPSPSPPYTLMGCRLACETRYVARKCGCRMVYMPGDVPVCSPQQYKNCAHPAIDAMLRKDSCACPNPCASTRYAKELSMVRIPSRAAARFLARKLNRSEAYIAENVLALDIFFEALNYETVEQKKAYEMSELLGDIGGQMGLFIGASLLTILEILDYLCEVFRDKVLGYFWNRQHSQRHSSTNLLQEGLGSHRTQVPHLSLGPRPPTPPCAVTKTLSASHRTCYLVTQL
Description: as §2, §3

hTRPV1 [2] = target: T1, hTRPV1; experiment: TRPV1 channel Ca2+ microfluorimetry (capsaicin 30 nM); assay type: cell-based; conditions: 10 μM; agonist capsaicin 30 nM
Description: as §2, §3

rTRPM8 = target: T5, rTRPM8 (Rattus norvegicus, UniProt Q8R455); experiment: Patch-Clamp electrophysiology on single HEK293 cells expressing rat TRPM8; assay type: cell-based; conditions: activation by 100 µM menthol; holding voltage −60 mV
T5 construct: expressed in transfected cells
T5 sequence (Q8R455 whole entry): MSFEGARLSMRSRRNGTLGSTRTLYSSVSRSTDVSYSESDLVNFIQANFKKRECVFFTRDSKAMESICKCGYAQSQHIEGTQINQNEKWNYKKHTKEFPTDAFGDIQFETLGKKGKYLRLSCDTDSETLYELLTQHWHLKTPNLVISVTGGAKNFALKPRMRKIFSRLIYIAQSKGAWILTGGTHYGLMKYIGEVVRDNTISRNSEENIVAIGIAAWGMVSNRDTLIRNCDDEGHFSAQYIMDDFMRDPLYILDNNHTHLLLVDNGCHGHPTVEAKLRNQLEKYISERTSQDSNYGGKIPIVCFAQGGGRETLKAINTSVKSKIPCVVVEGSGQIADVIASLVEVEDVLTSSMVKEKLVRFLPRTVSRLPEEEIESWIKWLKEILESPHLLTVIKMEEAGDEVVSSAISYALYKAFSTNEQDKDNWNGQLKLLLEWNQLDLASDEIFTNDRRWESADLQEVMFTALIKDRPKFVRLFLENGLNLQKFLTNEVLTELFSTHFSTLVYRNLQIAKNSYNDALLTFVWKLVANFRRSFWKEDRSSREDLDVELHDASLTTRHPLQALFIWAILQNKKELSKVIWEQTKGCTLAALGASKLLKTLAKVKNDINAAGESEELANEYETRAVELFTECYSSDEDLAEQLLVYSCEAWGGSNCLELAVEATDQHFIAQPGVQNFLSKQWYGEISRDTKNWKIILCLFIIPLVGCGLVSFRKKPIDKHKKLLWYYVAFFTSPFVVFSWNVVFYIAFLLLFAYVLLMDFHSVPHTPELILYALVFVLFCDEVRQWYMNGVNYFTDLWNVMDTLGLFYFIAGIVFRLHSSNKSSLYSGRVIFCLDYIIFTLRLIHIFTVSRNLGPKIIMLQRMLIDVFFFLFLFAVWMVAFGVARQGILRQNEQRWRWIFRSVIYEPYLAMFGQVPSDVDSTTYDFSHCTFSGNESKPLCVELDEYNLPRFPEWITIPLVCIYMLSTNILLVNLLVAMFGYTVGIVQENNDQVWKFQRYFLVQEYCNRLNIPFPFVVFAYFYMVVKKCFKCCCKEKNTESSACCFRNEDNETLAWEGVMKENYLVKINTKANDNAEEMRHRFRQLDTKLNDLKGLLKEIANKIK
Description: A recent research study using Patch-Clamp, among other techniques, established that menthol occupies a cavity within the TRPM8 S1–S4 transmembrane helix, with the OH group forming an H-bond with the δ-NH of R842 residue, and Van der Waals interactions among the methyl groups of the ^iPr moiety and residues I846 and L843 [41].
This is evident by a negligible current at negative potentials and a linear intensification of the ohmic current at positive voltages. When applying compound 34 at a concentration of […], a noticeable reduction in menthol-induced activity at depolarizing voltages was observed (indicated by the red line) compared to menthol alone. Dose–response relationships for both tested compounds were established through triplicate experiments at various concentrations, applying a holding voltage of −60 mV (as shown in Figure 2B).
as §3
Figure 2 Compound 34 blocks TRPM8-mediated responses evoked by menthol in rTRPM8-expressing HEK293 cells. (A) IV curves obtained after exposure to vehicle solution (green trace), 100 µM menthol (blue trace) and 100 µM menthol + 10 µM 34 (red trace). Peak current data were expressed as pA/pF (to allow comparison among different size cells). Each point is the mean ± SEM of n = 15. (B) Concentration/response curves for rTRPM8 current blockade by 34 at a holding voltage of −60 mV. […]

hCGRPR = hCGRPR (Homo sapiens, UniProt O60894+Q16602); experiment: Radioligand binding at CGRP receptor; conditions: radioligand [125]hGCRPα
hCGRPR, sequence (Q16602 23-461): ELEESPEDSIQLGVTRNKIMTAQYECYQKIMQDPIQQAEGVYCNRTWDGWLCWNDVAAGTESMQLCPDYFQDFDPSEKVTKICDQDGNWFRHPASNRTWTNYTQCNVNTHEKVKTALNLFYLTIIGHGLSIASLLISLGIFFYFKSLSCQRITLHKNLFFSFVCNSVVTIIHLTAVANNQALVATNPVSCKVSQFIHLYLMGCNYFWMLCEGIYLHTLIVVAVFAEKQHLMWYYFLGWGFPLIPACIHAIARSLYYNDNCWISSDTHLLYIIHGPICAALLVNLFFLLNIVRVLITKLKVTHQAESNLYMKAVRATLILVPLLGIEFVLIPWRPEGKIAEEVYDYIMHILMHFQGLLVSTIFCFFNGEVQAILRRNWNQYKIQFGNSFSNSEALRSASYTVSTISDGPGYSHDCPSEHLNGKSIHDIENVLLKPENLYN
hCGRPR, sequence (O60894 27-148): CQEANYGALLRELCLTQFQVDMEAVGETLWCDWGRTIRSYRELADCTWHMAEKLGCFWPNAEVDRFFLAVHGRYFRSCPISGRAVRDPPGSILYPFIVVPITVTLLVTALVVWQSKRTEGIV
Description: as §1

hCB2, sequence (P34972 whole entry): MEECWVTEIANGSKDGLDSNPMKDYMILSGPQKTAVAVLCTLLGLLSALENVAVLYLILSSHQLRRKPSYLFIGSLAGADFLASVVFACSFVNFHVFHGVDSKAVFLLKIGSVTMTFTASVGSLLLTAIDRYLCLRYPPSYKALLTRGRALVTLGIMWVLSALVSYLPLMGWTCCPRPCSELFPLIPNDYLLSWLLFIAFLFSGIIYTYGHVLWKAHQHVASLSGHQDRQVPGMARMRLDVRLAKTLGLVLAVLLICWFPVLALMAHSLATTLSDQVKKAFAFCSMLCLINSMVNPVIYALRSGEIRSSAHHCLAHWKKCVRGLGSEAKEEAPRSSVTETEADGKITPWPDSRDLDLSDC

C[C@@H]1C(=O)N(C[C@H](Cc2ccccc2)N(Cc2ccccc2)Cc2ccccc2)[C@]1(Cc1ccccc1)C(=O)OC(C)(C)C [Compound 1]
inhibition at 10 µM (hCB2): 7.3 ± 0.3% | activation on the TRPV1 channel (hTRPV1 [1]): about 30% | inhibition at 10 µM (hTRPA1): 4.2 ± 1.1% | inhibition at 10 µM (hTRPV3): -6.3 ± 5.9% | inhibition at 10 µM (hM3): -4.1 ± 3.1% | inhibition at 10 µM (hASIC3 channel): 6 ± 0.9% | inhibition at 10 µM (hTRPV1 [2]): 19.4 ± 1.7% | IC50 (rTRPM8): 600 ± 1660 nM | inhibition at 10 µM (hCGRPR): -1 ± 4.3%
